Experimental data from patent US4481198A, “Vitamin D metabolism inhibitor” (Wisconsin Alumni Research Foundation, priority 1984, dated 1984).
Values joined by “and” are separate entries in the source; they are usually repeats but may differ in a detail not shown here. Equal entries are not always repeated. “Also recorded” adds a separate entry of the source.

What was measured:
[1] = test system: 25-hydroxylation of vitamin D3; conditions: high doses required; cited from earlier work
[2] = test system: enzymatic 25-hydroxylation of vitamin D3 (microsomal enzyme system from rat liver); assay: in vitro 25-hydroxylation of vitamin D3 in rat liver microsomal enzyme system; format: biochemical
Description: Male rats, obtained as weanlings (Holtzman, Madison, WI) were maintained on a vitamin D-deficient 0.5% calcium and 0.3% phosphorus diet for 4-6 weeks prior to use for in vitro 25-hydroxylation assays. Animals were fasted 18 h to deplete glycogen stores prior to study.
The microsomes were prepared by the method of Madhok and DeLuca (Biochem. J. 184, 491 (1979)). Livers were homogenized in 3 vol of 0.25M sucrose using a Potter-Elvehjem homogenizer fitted with a Teflon pestle. All centrifugation steps were done using a type 30 rotor and a Beckman L5-50 ultracentrifuge (Beckman Instruments, Lincolnwood, Ill.). […]
The work-up of the incubation mixture involved separation of the organic phase, and evaporation of solvent; the residue was then taken up in hexane:CHCl3 :MeOH (90:10:5) and applied to a Sephadex LH-20 column (Pharmacia, Piscataway, N.J.) (0.7×12 cm). […] The radioactivity in the 25-OH-D3region was used as a measure of enzyme activity and the UV peak (254 nm) as a measure of recovery. Radioactivity was determined on a Packard Instruments 3255 liquid scintillation counter using a toluene counting solution with 0.4% p-bis-[2-(5-phenyloxazolyl)]-benzene and 0.03% dimethyl-1,4-bis-[2-(5-phenyloxazolyl)]-benzene. […] The enzyme activity was expressed as picomole product (25-OH-D3) produced per milligram protein per 2 hours.

Structure (SMILES): CC(C)CCC[C@@H](C)[C@H]1CC[C@H]2/C(=C/C=C3/C[C@@H](O)CCC3CO)CCC[C@]12C (stereo partly drawn) [19-hydroxy-10,19-dihydro-vitamin D3]
- inhibition of 25-hydroxylation of vitamin D3 by known antagonists (in words) [1]: partial inhibition

Structure (SMILES): C=C1CC[C@H](O)C/C1=C/C=C1\CCC[C@]2(C)[C@@H]([C@H](C)CCC(=NO)C(C)C)CC[C@@H]12 [24-(NOH)D3, vitamin D3-24-oxime]
- 25-OH-D3 Formation ([2]; [S] 200 nM vitamin D3, [I] 500 nM, inhibitor preincubated at 37° C. for 10 min, controls without inhibitor 0.46, 0.24, 0.36): 0.09 pmol/2h/mg protein and 0.05 pmol/2h/mg protein
- inhibition of 25-OH-D3 formation from vitamin D3 (in words) ([2]; rat liver microsomal system, 500 nM inhibitor, 2.5 times the substrate concentration): markedly suppressed; also recorded: dramatically suppresses
